“Also recorded” adds a separate entry of the source.
Assays:
[1] = tested on: primary intestinal epithelial cells; assay: screen of dietary compounds and natural products on primary intestinal epithelial cells on collagen hydrogel (Hoechst 33342, EDU, alkaline phosphatase, Muc2); format: cell-based; conditions: 48 h incubation at Table 1 concentration; for S-phase or proliferating cells (EDU) / number of nuclei / cell number (Hoechst 33342): relative to control cells cultured in ENR-W; for enterocyte phenotype (alkaline phosphatase expression): p=0.01 (#42), p=0.02 (#31), p=0.002 (#51); for growth suppression: both number of nuclei and S-phase cells significantly lower than control: p<0.01 versus control cells in ENR-W
From the text: FIG. 11. The impact of dietary compounds and natural products on primary colonic epithelium. The percentage of the collagen Daiszein (aglycone of daidzen) surface area occupied by cells (Hoechst 33342-positive) and the normalized EDU (A), alkaline phosphatase and mucin2-positive areas (B) were plotted against the compound number. The EDU, alkaline phosphatase and Muc2 areas were normalized to the total cell area. Alphabetic headings refer to categories described in Table 1.
Strategies to screen the vast number of dietary and metabolite compounds for their impact on proliferation, differentiation and other cell behaviors in the intestine have become increasingly important. However, major challenges exist due to a lack of technologies capable of faithfully duplicating the actions of these compounds on normal, healthy colonic cells. […] These attributes are central to intestinal barrier function and repair in the face of repeated chemical, physical, immune and infectious insults. Additionally controlled proliferation and terminal differentiation are key to avoiding an oncogenic state. Metabolites or natural products minimizing intestinal-cell proliferation without cell death, enhancing cell proliferation, or directing cells into the differentiated lineages are of profound interest for health maintenance and as therapeutics. The compounds represented a range of chemical classes with diverse or unknown impact on primary intestinal cells including fatty acids, bile acids, flavenoids, phytoestrogens, phenols, terpenoids, nitrates, and others. 75,000 cells were cultured on the collagen hydrogel with ENR-W (but with 10 ng/mL Wnt-3A) for 24 h to enable cells to attach to the surface, followed by incubation with the dietary/natural compounds for 48 h. The cells were then analyzed sequentially for four attributes: nuclei (Hoechst 33342), S-phase or proliferating cells (EDU), enterocyte phenotype (high alkaline phosphatase), and goblet cell marker (Muc2) (FIGS. 11A-B). […] In particular, glucosinolates (#68, #69, #70), responsible for the bitterness of cabbage and brussel sprouts, are toxic when consumed at high concentrations and this may in part be due to their direct effects on intestinal cells. […] These included the most of the phenols assayed such as gallic acid (#28), ellagic acid (#29), and punicalagin (#31) but also compounds such as valproate (#6) and […]-carotene (#58) all of which are recognized in the literature as inducing cell differentiation. […] Molecules promoting enterocyte formation may exert some of their beneficial effects by enhancing intestinal barrier and/or absorptive function and thus may be worthy of additional investigation. […] Matairesinol increases COX-2-derived prostaglandin E2 in Caco-2 cells and prostaglandin E2 has been characterized as inducing Goblet cell formation in the colon to increase mucous secretion. Screening primary colon epithelium directly links the matairesinol to increased mucous production and this may be through a prostaglandin E pathway.

Caco-2 cells = conditions: cited from earlier work
CYP1A1 = assay: ethoxyresorufin O-deethylase (EROD) assay of CYP1A1 induction in the 2D colonic epithelial monolayer; format: cell-based, mouse; conditions: 0.1 μM TCDD
Protocol: FIG. 7. […] Top panel, day 0. Bottom panel, day 5. White dotted line indicates the perimeter of the insert. (B) SEM images of 2D monolayer. […] (C) Basal EROD activity and inducibility in 2D monolayer cells. 2D monolayer was cultured under ENR-WB for 5 days. […] CYP1A1 enzyme activity was determined using the ethoxyresorufin O-deethylase (EROD) assay, n=3.
Intestine is a vital organ that has many important functions (such as absorption, secretion, etc.). One function is metabolism through cytochrome P450 (CYP) enzyme activity that provides the principal, initial source of biotransformation/detoxification of ingested xenobiotics (Kaminsky, L. S. et al., Critical Reviews in Toxicology 21, 407-422 (1992)). Among the CYPs, CYP1A1 plays a physiological role in the degradation of estradiol into 2-OH-estradiol (Paine, M. F. et al., Drug Metabolism and Disposition 27, 360-364 (1999)). In vivo, CYP1A1 in rat intestines can be induced by feeding the rats with polycyclic aromatic hydrocarbons (PAHs) (Martignoni, M. et al., Chemico-Biological Interactions 151, 1-11 (2004)). […] The CYP1A1 enzyme activity was determined using an ethoxyresorufin O-deethylase (EROD) assay (Jones, S. P. et al., Ecotoxicology 23, 802-808 (2014)).

Row | SMILES | S-phase or proliferating cells (EDU) [1] | number of nuclei / cell number (Hoechst 33342) [1] | other results
1 | O=C1O[C@H]2[C@@H]3OC(=O)c4cc(O)c(O)c(O)c4-c4c(O)c(O)c5oc(=O)c6c(c(O)c(O)c7oc(=O)c4c5c76)-c4c(cc(O)c(O)c4O)C(=O)OC[C@H]3OC(O)[C@@H]2OC(=O)c2cc(O)c(O)c(O)c2-c2c1cc(O)c(O)c2O (mixture of isomers) [#31, Punicalagin] | suppressed proliferation | did not greatly diminish cell number; also recorded: without cell number reduction | enterocyte phenotype (alkaline phosphatase expression) ([1]; relative to control): directed cells towards the enterocyte lineage
2 | COc1cc(-c2oc3cc(O)cc(O)c3c(=O)c2O)ccc1O [#21, Isorhamnetin] | increased cell numbers in S-phase |  | 
3 | O=C(O)c1cc(O)c(O)c(O)c1 [#28, Gallic Acid] | suppressed proliferation | did not greatly diminish cell number | 
4 | O=c1oc2c(O)c(O)cc3c(=O)oc4c(O)c(O)cc1c4c23 [#29, Ellagic Acid] | suppressed proliferation | did not greatly diminish cell number | 
5 | CN[C@@H]1C[C@H]2O[C@@](C)([C@@H]1OC)n1c3ccccc3c3c4c(c5c6ccccc6n2c5c31)C(=O)NC4 [#32, Aglycones (Staurosporine), reference compound] | decreased | significantly increased | 
6 | CC12CCC(CC1)C(C)(C)O2 [#42, Eucalyptol] | minimized cell proliferation |  | enterocyte phenotype (alkaline phosphatase expression) ([1]; relative to control): increasing alkaline phosphatase expression
7 | C/C(=C\CO)CCC[C@H](C)CCC[C@H](C)CCCC(C)C [#51, Phytol] |  | without cell number reduction | enterocyte phenotype (alkaline phosphatase expression) ([1]; relative to control): directed cells towards the enterocyte lineage
8 | CC1=C(/C=C/C(C)=C/C=C/C(C)=C/C=C/C=C(C)/C=C/C=C(C)/C=C/C2=C(C)CCCC2(C)C)C(C)(C)CCC1 [#58, β-carotene] | suppressed proliferation | did not greatly diminish cell number | 
9 | S=C=NCc1ccccc1 [#68, Glucotropaeolin isothiocyanate] |  |  | growth suppression: both number of nuclei and S-phase cells significantly lower than control [1]: growth suppressive
10 | O=S(=O)(O)ON=C(CCc1ccccc1)S[C@@H]1O[C@H](CO)[C@@H](O)[C@H](O)[C@H]1O [#69, Gluconasturtiin] |  |  | growth suppression: both number of nuclei and S-phase cells significantly lower than control [1]: growth suppressive
11 | C[S+]([O-])CCCC/C(=N\OS(=O)(=O)O)S[C@@H]1O[C@H](CO)[C@@H](O)[C@H](O)[C@H]1O (some centres unmarked) [#70, Glucoraphanin] |  |  | growth suppression: both number of nuclei and S-phase cells significantly lower than control [1]: growth suppressive
12 | COc1cc(C[C@H]2COC(=O)[C@@H]2Cc2ccc(O)c(OC)c2)ccc1O [#77, Matairesinol] |  |  | goblet cell marker Muc2 or mucin expression ([1]; relative to control, p<0.01): significantly increased; COX-2-derived prostaglandin E2 (Caco-2 cells): increases
13 | Clc1cc2c(cc1Cl)Oc1cc(Cl)c(Cl)cc1O2 [TCDD, 2,3,7,8-tetrachlorodibenzo-p-dioxin] |  |  | CYP1A1 activity increased compared with the cells treated with toluene vehicle (CYP1A1; 2D monolayer cultured under ENR-WB 5 days, treated 20 hours, EROD assay): 40 fold; CYP1A1 enzyme activity induction by PAHs (CYP1A1; 2D monolayer treated 20 hours, 10 μM βNF, 1 μM BaP, toluene vehicle): effectively demonstrated
